Source: the supplement of paper PMC13380429
Structures can show the parent of a compound that is named as a salt.

How the values were obtained:
Conditions in all cases: 72 h
[1] = test system: Caco-2; experiment: cell viability relative to DMSO; higher = less toxic
[2] = test system: Calu-3; experiment: as above
[3] = test system: HepG2; experiment: as above
[4] = test system: U2OS; experiment: as above
[5] = test system: Vero E6; experiment: as above
[6] = test system: Caco-2; experiment: relative viability EC50 (midpoint between 100% and the lowest measured viability); higher = less toxic
[7] = test system: Calu-3; experiment: as above
[8] = test system: HepG2; experiment: as above
[9] = test system: U2OS; experiment: as above
[10] = test system: Vero E6; experiment: as above
[11] = test system: Caco-2; experiment: drug sensitivity score (DSS) for viability; higher = more toxic; extreme values may be limits of the assay
[12] = test system: Calu-3; experiment: as above
[13] = test system: HepG2; experiment: as above
[14] = test system: U2OS; experiment: as above
[15] = test system: Vero E6; experiment: as above

Structure (SMILES) | cell viability ([1]; 1 nM) | cell viability ([1]; 10 nM) | cell viability ([1]; 100 nM) | cell viability ([1]; 1000 nM) | cell viability ([1]; 10000 nM) | cell viability ([2]; 1 nM) | cell viability ([2]; 10 nM) | cell viability ([2]; 100 nM) | cell viability ([2]; 1000 nM) | cell viability ([2]; 10000 nM) | cell viability ([3]; 1 nM) | cell viability ([3]; 10 nM) | cell viability ([3]; 100 nM) | cell viability ([3]; 1000 nM) | cell viability ([3]; 10000 nM) | cell viability ([4]; 1 nM) | cell viability ([4]; 10 nM) | cell viability ([4]; 100 nM) | cell viability ([4]; 1000 nM) | cell viability ([4]; 10000 nM) | cell viability ([5]; 1 nM) | cell viability ([5]; 10 nM) | cell viability ([5]; 100 nM) | cell viability ([5]; 1000 nM) | cell viability ([5]; 10000 nM) | relative viability EC50 [6] | relative viability EC50 [7] | relative viability EC50 [8] | relative viability EC50 [9] | relative viability EC50 [10] | drug sensitivity score [11] | drug sensitivity score [12] | drug sensitivity score [13] | drug sensitivity score [14] | drug sensitivity score [15]
CCSC(=N)N [EIT-hydrobromide] | 97.7% | 98.1% | 91.1% | 102% | 107% | 108% | 96.8% | 96.9% | 104% | 103% | 96.9% | 90% | 94.3% | 102% | 103% | 94.2% | 101% | 97.5% | 100% | 103% | 94.2% | 99.4% | 96.9% | 95.8% | 105% | > 10 µM | > 10 µM | > 10 µM | > 10 µM | > 10 µM | 0 | 0 | 0 | 0 | 0
CNC(=O)c1cc2c(cn1)[nH]c1ccccc12 [FG-7142] | 97.7% | 104% | 92.2% | 89.8% | 88.2% | 96.9% | 91.8% | 98.2% | 100% | 103% | 101% | 88.4% | 107% | 96.3% | 110% | 98.2% | 100% | 96.9% | 100% | 96.9% | 102% | 95.7% | 98.2% | 100% | 101% | > 10 µM | > 10 µM | > 10 µM | > 10 µM | > 10 µM | 0.8 | 0 | 0 | 0 | 0
CC(=O)N1CCC(NC(=O)c2ccc(F)cc2)CC1 [FK-962] | 101% | 97.4% | 104% | 108% | 114% | 108% | 98.7% | 101% | 99.5% | 95.8% | 107% | 104% | 134% | 92.6% | 108% | 97.8% | 97.9% | 98.6% | 103% | 94.4% | 98.1% | 87.7% | 98.3% | 88.5% | 94.3% | > 10 µM | > 10 µM | > 10 µM | > 10 µM | > 10 µM | 0 | 0 | 0 | 0 | 0
c1ccc([C@@H]2C[C@H]2NC2CCNCC2)cc1 [GSK-LSD-1] | 98.5% | 95.2% | 96.5% | 87.1% | 92.2% | 102% | 88% | 96.8% | 95.8% | 93.4% | 92.6% | 96.4% | 93% | 98.8% | 97.2% | 102% | 98.1% | 104% | 94.6% | 104% | 97.1% | 99.4% | 96.4% | 101% | 95.6% | > 10 µM | > 10 µM | > 10 µM | > 10 µM | > 10 µM | 0 | 0 | 0 | 0 | 0
CC(C)[C@@H](CN1CC[C@@](C)(c2cccc(O)c2)[C@@H](C)C1)NC(=O)[C@H]1Cc2ccc(O)cc2CN1 [JDTic] | 91.9% | 95.2% | 96.7% | 93.3% | 98.5% | 103% | 103% | 95% | 109% | 83.2% | 100% | 95.6% | 99.4% | 101% | 99.6% | 96.7% | 104% | 95.5% | 101% | 102% | 99.4% | 98% | 97.6% | 95.1% | 102% | > 10 µM | > 10 µM | > 10 µM | > 10 µM | > 10 µM | 0 | 0.2 | 0 | 0 | 0
